Experimental data: patent US20240376091A1, “THIADIAZOLEAMIDE DERIVATIVES AND THEIR APPLICATIONS” (ZHEJIANG UNIVERSITY, priority 2021, published 2024)
pIC50: −log10 of the molar value.

Molecular target: T1, AR (Homo sapiens, UniProt P10275, T878A)
T1 construct: into the androgen-dependent PCa cells (LNCaP); endogenous in cells; host or cells: LNCaP-ARR2PB-eGFP
T1 sequence (P10275 1-920 T878A): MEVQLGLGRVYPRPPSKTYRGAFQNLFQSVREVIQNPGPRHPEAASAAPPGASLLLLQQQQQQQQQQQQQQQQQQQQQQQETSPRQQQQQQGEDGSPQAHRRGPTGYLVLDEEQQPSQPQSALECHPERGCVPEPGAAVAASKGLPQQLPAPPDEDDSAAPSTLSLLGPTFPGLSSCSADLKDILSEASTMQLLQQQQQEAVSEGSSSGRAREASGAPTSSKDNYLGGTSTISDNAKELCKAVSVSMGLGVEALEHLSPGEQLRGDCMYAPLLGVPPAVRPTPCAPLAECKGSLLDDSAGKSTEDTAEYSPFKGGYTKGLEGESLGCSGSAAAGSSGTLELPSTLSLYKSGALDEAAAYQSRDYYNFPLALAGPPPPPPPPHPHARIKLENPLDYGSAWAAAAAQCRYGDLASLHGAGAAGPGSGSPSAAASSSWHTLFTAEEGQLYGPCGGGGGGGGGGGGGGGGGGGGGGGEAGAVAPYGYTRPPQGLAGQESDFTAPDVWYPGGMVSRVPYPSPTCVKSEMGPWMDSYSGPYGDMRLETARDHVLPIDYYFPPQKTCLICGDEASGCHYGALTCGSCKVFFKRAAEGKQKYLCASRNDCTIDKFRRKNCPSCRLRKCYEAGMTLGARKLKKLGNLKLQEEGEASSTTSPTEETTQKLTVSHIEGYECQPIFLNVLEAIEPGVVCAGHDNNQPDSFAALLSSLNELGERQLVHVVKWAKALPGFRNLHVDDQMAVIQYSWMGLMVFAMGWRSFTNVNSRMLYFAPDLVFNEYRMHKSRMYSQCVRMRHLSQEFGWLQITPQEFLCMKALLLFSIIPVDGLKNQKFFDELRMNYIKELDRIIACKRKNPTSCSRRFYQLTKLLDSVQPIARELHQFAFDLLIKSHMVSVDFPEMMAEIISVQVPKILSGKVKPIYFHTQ
Assay: AR transcriptional activity, LNCaP-ARR2PB-eGFP reporter cells
Assay type: cell-based
Conditions: read-out: IC50 AR transcriptional activities
Description: Detection principles: We conducted a stable transfection of promoter ARR2PB known for its strong AR responsiveness, into the androgen-dependent PCa cells (LNCaP). The expression of enhanced green fluorescent protein (eGFP) is depending on the degree of activation of AR. Therefore, LNCaP-ARR2PB-eGFP cell line could quantitatively determine the AR antagonistic activities of the compounds by evaluating the expression of eGFP.

pIC50 | SMILES
4.23 | CC(Cc1nsc(NC(=O)c2coc(-c3cccc(OC(F)F)c3)c2)n1)N1CCN(C)CC1 (stereo not shown) [Compound B-19, 5-(3-(Difluoromethoxy)phenyl)-N-(3-(2-(4-methylpiperazin-1-yl)propyl)-1,2,4-thiadiazol-5-yl)furan-3-carboxamide]
4.94 | CC(O)Cc1nsc(NC(=O)c2coc(-c3cccc(C(F)(F)F)c3)c2)n1 (stereo not shown) [Compound B-20, N-(3-(2-hydroxypropyl)-1,2,4-thiadiazol-5-yl)-5-(3-(trifluoromethyl)phenyl)furan-3-carboxamide]
4.81 | CC(O)(Cc1nsc(NC(=O)c2coc(-c3cccc(C(F)(F)F)c3)c2)n1)C(F)(F)F (stereo not shown) [Compound B-25, N-(3-(3,3,3-trifluoro-2-hydroxy-2-methylpropyl)-1,2,4-thiadiazol-5-yl)-5-(3-(trifluoro-methyl)phenyl)furan-3-carboxamide]
5.31 | CC(Cc1nsc(NC(=O)c2coc(-c3cccc(C(F)(F)F)c3)c2)n1)=C(F)F [Compound B-30, N-(3-(3,3-difluoro-2-methylallyl)-1,2,4-thiadiazol-5-yl)-5-(3-(trifluoromethyl)phenyl) furan-3-carboxamide]
4.84 | CC(F)(F)Cc1nsc(NC(=O)c2coc(-c3cccc(C(F)(F)F)c3)c2)n1 [Compound B-35, N-(3-(2,2-difluoropropyl)-1,2,4-thiadiazol-5-yl)-5-(3-(trifluoromethyl)phenyl)furan-3-carboxamide]
4.91 | O=C(Nc1nc(CCl)ns1)c1coc(-c2cccc(C(F)(F)F)c2)c1 [Compound B-40, N-(3-(chloromethyl)-1,2,4-thiadiazol-5-yl)-5-(3-(trifluoromethyl)phenyl)furan-3-carboxamide]
4.73 | CN(C)Cc1nsc(NC(=O)c2coc(-c3cccc(C#N)c3)c2)n1 [Compound B-47, 5-(3-Cyanophenyl)-N-(3-((dimethylamino)methyl)-1,2,4-thiadiazol-5-yl)furan-3-carboxamide]
4.64 | CCN(CC)Cc1nsc(NC(=O)c2coc(-c3cccc(OC)c3)c2)n1 [Compound B-50, N-(3-((diethylamino)methyl)-1,2,4-thiadiazol-5-yl)-5-(3-methoxyphenyl)furan-3-carboxamide]
4.55 | O=C(Nc1nc(CN2CCCCC2)ns1)c1coc(-c2cccc(OC(F)F)c2)c1 [Compound B-56, 5-(3-(Difluoromethoxy)phenyl)-N-(3-(piperidin-1-ylmethyl)-1,2,4-thiadiazol-5-yl)furan-3-carboxamide]
4.63 | O=C(Nc1nc(CN2CCOCC2)ns1)c1coc(-c2cccc(OC(F)F)c2)c1 [Compound B-57, 5-(3-(Difluoromethoxy)phenyl)-N-(3-(morpholinomethyl)-1,2,4-thiadiazol-5-yl)furan-3-carboxamide]
4.49 | CN1CCN(Cc2nsc(NC(=O)c3coc(-c4cccc(OC(F)F)c4)c3)n2)CC1 [Compound B-58, 5-(3-(Difluoromethoxy)phenyl)-N-(3-((4-methylpiperazin-1-yl)methyl)-1,2,4-thiadiazol-5-yl)furan-3-carboxamide]
5.03 | CC(=O)Cc1nsc(NC(=O)c2cc(-c3cccc(C(F)(F)F)c3)sc2C)n1 [Compound C-1, 2-Methyl-N-(3-(2-oxopropyl)-1,2,4-thiadiazol-5-yl)-5-(3-(trifluoromethyl)phenyl)thiophene-3-carboxamide]
4.48 | CC(=O)Cc1nsc(NC(=O)c2cc(-c3cccc(C#N)c3)sc2C)n1 [Compound C-2, 5-(3-Cyanophenyl)-2-methyl-N-(3-(2-oxopropyl)-1,2,4-thiadiazol-5-yl)thiophene-3-carboxamide]
4.36 | COc1cccc(-c2cc(C(=O)Nc3nc(CC(C)=O)ns3)c(C)s2)c1 [Compound C-3, 5-(3-Methoxyphenyl)-2-methyl-N-(3-(2-oxopropyl)-1,2,4-thiadiazol-5-yl)thiophene-3-carboxamide]
4.60 | CC(=O)Cc1nsc(NC(=O)c2cc(-c3cccc(OC(F)(F)F)c3)sc2C)n1 [Compound C-4, 2-Methyl-N-(3-(2-oxopropyl)-1,2,4-thiadiazol-5-yl)-5-(3-(trifluoromethoxy)phenyl)thiophene-3-carboxamide]
4.31 | CC(=O)Cc1nsc(NC(=O)c2cc(-c3cccc(OC(F)F)c3)sc2C)n1 [Compound C-5, 5-(3-(Difluoromethoxy)phenyl)-2-methyl-N-(3-(2-oxopropyl)-1,2,4-thiadiazol-5-yl)thiophene-3-carboxamide]
5.24 | Cc1sc(-c2cccc(C#N)c2)cc1C(=O)Nc1nc(CC(C)N2CCCCC2)ns1 (stereo not shown) [Compound C-12, 5-(3-Cyanophenyl)-2-methyl-N-(3-(2-(piperidin-1-yl)propyl)-1,2,4-thiadiazol-5-yl)thiophene-3-carboxamide]
4.71 | COc1cccc(-c2cc(C(=O)Nc3nc(CC(C)N4CCCC4)ns3)c(C)s2)c1 (stereo not shown) [Compound C-14, 5-(3-Methoxyphenyl)-2-methyl-N-(3-(2-(pyrrolidin-1-yl)propyl)-1,2,4-thiadiazol-5-yl)thiophene-3-carboxamide]
5.21 | Cc1sc(-c2cccc(OC(F)(F)F)c2)cc1C(=O)Nc1nc(CC(C)N2CCOCC2)ns1 (stereo not shown) [Compound C-17, 2-Methyl-N-(3-(2-morpholinopropyl)-1,2,4-thiadiazol-5-yl)-5-(3-(trifluoromethoxy)phenyl)thiophene-3-carboxamide]
4.81 | Cc1sc(-c2cccc(OC(F)F)c2)cc1C(=O)Nc1nc(CC(C)N2CCN(C)CC2)ns1 (stereo not shown) [Compound C-19, 5-(3-(Difluoromethoxy)phenyl)-2-methyl-N-(3-(2-(4-methylpiperazin-1-yl)propyl)-1,2,4-thiadiazol-5-yl)thiophene-3-carboxamide]
5.34 | Cc1sc(-c2cccc(C(F)(F)F)c2)cc1C(=O)Nc1nc(CC(C)O)ns1 (stereo not shown) [Compound C-20, N-(3-(2-hydroxypropyl)-1,2,4-thiadiazol-5-yl)-2-methyl-5-(3-(trifluoromethyl)phenyl)thiophene-3-carboxamide]
5.60 | Cc1sc(-c2cccc(C(F)(F)F)c2)cc1C(=O)Nc1nc(CC(C)(O)C(F)(F)F)ns1 (stereo not shown) [Compound C-25, 2-Methyl-N-(3-(3,3,3-trifluoro-2-hydroxy-2-methylpropyl)-1,2,4-thiadiazol-5-yl)-5-(3-(trifluoromethyl)phenyl)thiophene-3-carboxamide]
4.89 | CC(Cc1nsc(NC(=O)c2cc(-c3cccc(C(F)(F)F)c3)sc2C)n1)=C(F)F [Compound C-30, N-(3-(3,3-difluoro-2-methylallyl)-1,2,4-thiadiazol-5-yl)-2-methyl-5-(3-(trifluoromethyl)phenyl)thiophene-3-carboxamide]

SMILES | pIC50
Cc1sc(-c2cccc(C(F)(F)F)c2)cc1C(=O)Nc1nc(CC(C)N(C)C)ns1 (stereo not shown) [Compound C-6, N-(3-(2-(dimethylamino)propyl)-1,2,4-thiadiazol-5-yl)-2-methyl-5-(3-(trifluoromethyl)phenyl)thiophene-3-carboxamide] | 4.48
CCN(CC)C(C)Cc1nsc(NC(=O)c2cc(-c3cccc(C(F)(F)F)c3)sc2C)n1 (stereo not shown) [Compound C-7, N-(3-(2-(diethylamino)propyl)-1,2,4-thiadiazol-5-yl)-2-methyl-5-(3-(trifluoromethyl)phenyl)thiophene-3-carboxamide] | 4.98
